# Assays:
# [1] = test system: RAW 264.7 γNO(−) cells; assay: Cytokine induction and ELISAs in mouse macrophages (RAW 264.7 γNO(−) cells); type: cell-based; details: for secretion of cytokines (TNF-α, IL-6, IP-10, IFN-β and IL-1β): Example III, data not shown; for Cytokine top value of dose-response curve, pro Il-1β: cell lysates; for Cytokine top value of dose-response curve, pro Il-1β / TNF-α and IFN-β production, dose response (in words) / Cytokine top value of dose-response curve, IFN-β / Cytokine top value of dose-response curve, IL-6 / Cytokine top value of dose-response curve, IP-10 / Cytokine top value of dose-response curve, RANTES / Cytokine top value of dose-response curve, TNF-α: 5.5 h; for Cytokine top value of dose-response curve, pro Il-1β / Cytokine top value of dose-response curve, IFN-β / Cytokine top value of dose-response curve, IL-6 / Cytokine top value of dose-response curve, IP-10 / Cytokine top value of dose-response curve, RANTES / Cytokine top value of dose-response curve, TNF-α: best-fit value ± std. error; for TNF-α and IFN-β production, dose response (in words) / Cytokine top value of dose-response curve, IFN-β / Cytokine top value of dose-response curve, IL-6 / Cytokine top value of dose-response curve, IP-10 / Cytokine top value of dose-response curve, RANTES / Cytokine top value of dose-response curve, TNF-α / Cytokine top value of dose-response curve, IL-1β: supernatant; for TNF-α and IFN-β production, dose response (in words): wide range of concentrations; for Cytokine top value of dose-response curve, IL-1β: 24 h, best-fit value ± std. error (# plateau not reached for LPS)
# Method: Mouse macrophages (RAW 264.7 γNO(−) cells) were exposed over a wide range of concentrations to compounds 1-5 and E. coli 055:B5 LPS. After 5.5 hours, the supernatants were harvested and examined for mouse TNF-α and IFN-β using a commercial and in-house developed capture ELISA assay, respectively. Potencies (EC50, concentration producing 50% activity) and efficacies (maximal level of production) were determined by fitting the dose-response curves to a logistic equation using PRISM software. […] It has also been shown that removal of the KDO moieties by mild acidic treatment reduces cellular responses (Demchenko et al., J. Am. Chem. Soc. 2003, 125, 6103-6112).
# Having established the EC50 values of TNF-α and IFN-β secretion by compounds 1-5 and E. coli 055:B5 LPS, attention was focused on IL-6, IP-10, RANTES, and IL-1β responses. Thus, the previously harvested supernatants were analyzed for these cytokines using capture ELISA assays (FIG. 4, Table 1). For IL-6, IP-10, and RANTES, a short incubation time of 5.5 hrs was sufficient for detection. To achieve significant IL-1β secretion, the incubation had to be extended to 24 hrs. […] IL-1β is expressed as a pro-protein (pro-IL-1β), which is cleaved by caspase-1 into its active form (IL-1β), which is then secreted. Indeed, analyzing IL-1β of the cell lysates by Western blotting confirmed that it was present as a pro-protein (data not shown). TNF-α is also produced as a pro-protein, which is proteolitically cleaved by tumor necrosis factor-α converting enzyme (TACE) (Skotnicki and Levin, Annu. Rep. Med. Chem. 2003, 38, 153-162; Duffy et al., Thromb. Haemost. 2003, 89, 622-631). […] Furthermore, for each of the synthetic compounds and LPS, EC50 values of secreted TNF-α and intracellular pro-IL-1β were very similar. However, EC50 values for secreted mature IL-1β were larger by as much as 100-fold.
# RAW 264.7 γNO(−) cells were plated on the day of the exposure assay as 2×10^5 cells/well in 96-well tissue culture plates (Nunc). Cells were incubated with different stimuli for 5.5 and 24 hours in replicates of five. Culture supernatants were then collected, pooled, and stored frozen (−80° C.) until assayed for cytokine production. After removal of the supernatant, cells were lysed by adding PBS containing Tween 20 (0.01%) and BSA (1%) in the same volume as that of the supernatant and sonicating for 5 min. The cell lysates were pooled and stored frozen (−80° C.) until assayed for cytokine production.
# All cytokine ELISAs were performed in 96-well MaxiSorp plates (Nunc). Cytokine DuoSet ELISA Development Kits (R&D Systems) were used for the cytokine quantification of mouse TNF-α, IL-6, IP-10, RANTES, and IL-1β according to the manufacturer's instructions. The absorbance was measured at 450 nm with wavelength correction set to 540 nm using a microplate reader (BMG Labtech). Concentrations of IFN-β in culture supernatants were determined as follows. ELISA MaxiSorp plates were coated with rabbit polyclonal antibody against mouse IFN-β (PBL Biomedical Laboratories). IFN-β in standards and samples was allowed to bind to the immobilized antibody. Rat anti-mouse IFN-β antibody (USBiological) was then added, producing an antibody-antigen-antibody “sandwich”. Next, horseradish peroxidase (HRP) conjugated goat anti-rat IgG (H+L) antibody (Pierce) and a chromogenic substrate for HRP 3,3′,5,5′-tetramethylbenzidine (TMB; Pierce) were added. After the reaction was stopped, the absorbance was measured at 450 nm with wavelength correction set to 540 nm. All cytokine values are presented as the means±SD of triplicate measurements, with each experiment being repeated three times.
# Concentration-response data were analyzed using nonlinear least-squares curve fitting in Prism (GraphPad Software, Inc.). […] The Hillslope was set at 1 to be able to compare the EC50 values of the different inducers. […]
# [2] = test system: MM6 cells; assay: Cell viability of MM6 cells by trypan blue exclusion; type: cell-based, human; details: 5.5 h treatment
SMILES,"secretion of cytokines (TNF-α, IL-6, IP-10, IFN-β and IL-1β) [1]","cell viability, cellular exclusion of trypan blue [2]","Cytokine top value of dose-response curve, pro Il-1β [1] [pg/mL]","TNF-α and IFN-β production, dose response (in words) [1]","Cytokine top value of dose-response curve, IFN-β [1] [pg/mL]","Cytokine top value of dose-response curve, IL-6 [1] [pg/mL]","Cytokine top value of dose-response curve, IP-10 [1] [pg/mL]","Cytokine top value of dose-response curve, RANTES [1] [pg/mL]","Cytokine top value of dose-response curve, TNF-α [1] [pg/mL]","Cytokine top value of dose-response curve, IL-1β [1] [pg/mL]"
"CCCCCCCCCCCCCCCC(=O)O[C@H](CCCCCCCCCCCC(C)C)CC(=O)N[C@H]1[C@H](OC[C@H]2O[C@H](OP(=O)(O)O)[C@H](NC(=O)C[C@H](O)CCCCCCCCCCCC(C)C)[C@@H](OC(=O)C[C@H](O)CCCCCCCCCCCCC)[C@@H]2O)O[C@H](CO)[C@@H](O)[C@@H]1O [Compound 103, 6-O-{2-Deoxy-2-[(R)-3-hexadecanoyloxy-15-methyl-hexadecanoylamino]-β-D-glucopyranosyl}-3-O—[(R)-3-hydroxy-hexadecanoyl]-2-deoxy-2-[(R)-3-hydroxy-15-methyl-hexadecanoylamino]-α-D-glucopyranose 1-phosphate]",did not lead to secretion of cytokines,did not affect cell viability,–,–,–,–,–,–,–,–
"CCCCCCCCCCCCCCCC(=O)O[C@H](CCCCCCCCCCCC(C)C)CC(=O)N[C@H]1[C@H](OC[C@H]2O[C@H](OP(=O)(O)O)[C@H](NC(=O)C[C@H](O)CCCCCCCCCCCC(C)C)[C@@H](O)[C@@H]2O)O[C@H](CO)[C@@H](O)[C@@H]1ONC(=O)C[C@H](O)CCCCCCCCCC(C)C [Compound 104, 6-O-{2-Deoxy-2-[(R)-3-hexadecanoyloxy-15-methyl-hexadecanoylamino]-3-O—[(R)-3-hydroxy-13-methyl-tetradecanoylamino]-β-D-glucopyranosyl}-2-deoxy-2-[(R)-3-hydroxy-15-methyl-hexadecanoylamino]-α-D-glucopyranose 1-phosphate]",did not lead to secretion of cytokines,did not affect cell viability,–,–,–,–,–,–,–,–
"CCCCCCCCCCCCCC(=O)OC(CCCCCCCCCCC)CC(=O)OC1C(NC(=O)CC(CCCCCCCCCCC)OC(=O)CCCCCCCCCCC)C(OCC2OC(OP(=O)(O)O)C(NC(=O)CC(O)CCCCCCCCCCC)C(OC(=O)CC(O)CCCCCCCCCCC)C2O)OC(CO)C1OP(=O)(O)O [Lipid A 1, 6-O-{2-Deoxy-2-[(R)-3-dodecanoyloxy-tetradecanoylamino]-3-O—[(R)-3-tetradecanoyloxy-tetradecanoyl]-β-D-glucopyranosyl}-2-deoxy-3-O—[(R)-3-hydroxy-tetradecanoyl]-2-[(R)-3-hydroxy-tetradecanoylamino]-α-D-glucopyranose 1,4′-bisphosphate]",–,–,565 ± 25,clear dose response curves,724 ± 25,249 ± 29,6778 ± 214,5531 ± 214,3924 ± 179,92 ± 2
"CCCCCCCCCCCC(=O)OC(CCCCCCCCCCC)CC(=O)NC1C(OCC2OC(OP(=O)(O)O)C(NC(=O)CC(O)CCCCCCCCCCC)C(OC(=O)CC(O)CCCCCCCCC)C2O)OC(CO)C(OP(=O)(O)O)C1OC(=O)CC(CCCCCCCCC)OC(=O)CCCCCCCCCCC [Lipid A 2, 6-O-{2-Deoxy-3-O—[(R)-3-dodecanoyloxy-dodecanoyl]-2-[(R)-3-dodecanoyloxy-tetradecanoylamino]-β-D-glucopyranosyl}-2-deoxy-3-O—[(R)-3-hydroxy-dodecanoyl]-2-[(R)-3-hydroxy-tetredecanoylamino]-α-D-glucopyranose 1,4′-bisphosphate]",–,–,587 ± 87,clear dose response curves,654 ± 37,299 ± 42,7207 ± 277,6851 ± 216,4223 ± 329,82 ± 2
"CCCCCCCCCCCCCCCC(=O)OC(CCCCCCCCCCC)CC(=O)NC1C(OP(=O)(O)O)OC(COC2OC(CO)C(OP(=O)(O)O)C(OC(=O)CC(CCCCCCCCC)OC(=O)CCCCCCCCCCC)C2NC(=O)CC(CCCCCCCCCCC)OC(=O)CCCCCCCCCCC)C(O)C1OC(=O)CC(O)CCCCCCCCC [Lipid A 4, 6-O-{2-Deoxy-3-O—[(R)-3-dodecanoyloxy-dodecanoyl]-2-[(R)-3-dodecanoyloxy-tetradecanoylamino]-β-D-glucopyranosyl}-2-deoxy-2-[(R)-3-hexadecanoyloxy-tetredecanoylamino]-3-O—[(R)-3-hydroxy-dodecanoyl]-α-D-glucopyranose 1,4′-bisphosphate]",–,–,610 ± 35,clear dose response curves,710 ± 44,233 ± 12,7320 ± 415,5360 ± 263,4178 ± 250,86 ± 4

# — US9309276B2, “Synthetic lipid A derivative” (University of Georgia Research Foundation, Inc., priority 2007, dated 2016)
